Experiments:
Format in all cases: cell-based, human
[1] = system: WEDE15; experiment: TRAP-stimulated whole blood flow cytometry, WEDE15; settings: Mean ± SD
Procedure: (§1) The methodology employed was conventional aggregation induced by 5 μM ADP, 1 μg/ml collagen, 10 μM TRAP, whole blood aggregation with 1 μg/ml collagen, Ultegra, and PFA-100 Analyzers, expression of 14 intact, and TRAP-stimulated major receptors by whole blood flow cytometry were utilized to assess platelet activity after preincubation with escalating concentrations of E5555 (20 ng/ml, 50 ng/ml, and 100 ng/ml). The experiments were performed in healthy volunteers, CAD patients treated with ASA, and CAD patients treated with ASA and clopidogrel combination (n=10, for each group).
(§2) An Informed Consent was obtained from all volunteers. Drug users were excluded from data analysis. The study was approved by Quorum Institutional Review Board. All subjects underwent blood sampling after at least 30 minutes of rest and two or more hours of fasting. Blood (28 ml) was drawn between 8 and 10 a.m. in order to avoid any diurnal influence and sampled from an antecubital vein using a 21-gauge butterfly needle containing 3.2% sodium citrate (1:9 volume) after having discarded the first 1.5 ml of free running blood. Four Vacutainer tubes (7.0 ml) were collected for a total of 28 ml of whole blood-citrate mixture from each study participant. Chronologically, blood samples were delivered to the core laboratory facility within 45 minutes after drawing. Then all tubes of blood-citrate mixture were pooled. One portion of pooled blood (5 ml) was kept as an internal control and pretreated with the vehicle. The remaining blood (23 ml) was used for the in vitro exposure to E5555 at concentrations of 20 ng/ml, 50 ng/ml, and 100 ng/ml. […] The platelet aggregation studies, Rapid Analyzers measures, and flow cytometry preparations were initiated within no more than 110 minutes following the blood draw, incubation with the drug, and preparation of the samples.
(§3) Formation of platelet-leukocyte aggregates was assessed by dual labeling with pan-platelet marker (CD151), and then with CD14, the macrophage receptor for endotoxin lipopolysaccharides (PharMingen, and Coulter, San Diego, Calif., USA). The tubes were then covered with aluminum foil and incubated at 37° C. for 40 minutes with gentle rotation. After incubation, samples were immediately analyzed on a Becton Dickinson FACScan flow cytometer. The instrument was set up to measure forward light scatter, and FITC fluorescence. All parameters were collected using four-decade logarithmic amplification. The data was retrieved in list mode files and then analyzed. P selectin was expressed as percent positive cells. Other antigens were expressed as log mean fluorescence intensity.
(§4) For flow cytometry (TRAP-stimulated) all of the above flow cytometry experiments were identically repeated utilizing prestimulation with 10 μmol/L TRAP for 5 minutes at 37° C. To determine statistics, a Paired Sign Test was used to define significance of differences between vehicle and E5555-treated groups. The Mann-Whitney U test was used to analyze nonparametric data. Normally distributed data were expressed as mean±standard error (m±SE), and skewed data as median (range). All P-values were two sided. All analysis was performed using the SPSS v9.0 program (SPSS Inc., Chicago, Ill.).

[2] = system: VTNR (CD51/61); experiment: TRAP-stimulated whole blood flow cytometry, vitronectin receptor; settings: Mean ± SD
Procedure: as §1, §2, §3, §4

[3] = system: GPIb (CD42b); experiment: TRAP-stimulated whole blood flow cytometry, GPIb; settings: Mean ± SD
Procedure: as §1, §2, §3, §4

[4] = system: SPAN-12; experiment: TRAP-stimulated whole blood flow cytometry, SPAN-12; settings: Mean ± SD
Procedure: as §1, §2, §3, §4

[5] = system: P-selectin (CD62p); experiment: Unstimulated whole blood flow cytometry, P-selectin; settings: for P-selectin (CD62p), % positive cells: unstimulated, Mean ± SD
Procedure: as §1, §2, §3

[6] = system: LAMP-3 (CD63); experiment: TRAP-stimulated whole blood flow cytometry, LAMP-3; settings: Mean ± SD
Procedure: as §1, §2, §3, §4

[7] = system: GPIIb antigen (CD41); experiment: TRAP-stimulated whole blood flow cytometry, GPIIb antigen; settings: Mean ± SD
Procedure: as §1, §2, §3, §4

[8] = system: GP37 (CD165); experiment: TRAP-stimulated whole blood flow cytometry, GP37; settings: Mean ± SD
Procedure: as §1, §2, §3, §4

[9] = system: PECAM-1 (CD31); experiment: Unstimulated whole blood flow cytometry, PECAM-1; settings: for PECAM-1 (CD31), Mean Fluorescence Intensity: unstimulated, Mean ± SD
Procedure: as §1, §2, §3

[10] = E5555 20 ng/ml, Patients (ASA + C)
[11] = E5555 50 ng/ml, Patients (ASA + C)
[12] = E5555 100 ng/ml, Patients (ASA + C)
[13] = E5555 100 ng/ml, Patients (ASA)
[14] = overall summary, stimulation not stated

Br.CCOc1cc2c(c(F)c1OCC)C(=N)N(CC(=O)c1cc(N3CCOCC3)c(OC)c(C(C)(C)C)c1)C2 [E5555, 1-(3-tert-butyl-4-methoxy-5-morpholinophenyl)-2-(5,6-diethoxy-7-fluoro-1-imino-1,3-dihydro-2H-isoindol-2-yl)ethanone hydrobromide]
WEDE15, Mean Fluorescence Intensity [1, 10]: 33 ± 5 MFI | WEDE15, Mean Fluorescence Intensity ([1]; E5555 20 ng/ml, Patients (ASA)): 38 ± 6 MFI | WEDE15, Mean Fluorescence Intensity ([1]; E5555 20 ng/ml, Volunteers): 40 ± 7 MFI | WEDE15, Mean Fluorescence Intensity [1, 11]: 34 ± 6 MFI | WEDE15, Mean Fluorescence Intensity ([1]; E5555 50 ng/ml, Patients (ASA)): 39 ± 6 MFI | WEDE15, Mean Fluorescence Intensity ([1]; E5555 50 ng/ml, Volunteers): 40 ± 5 MFI | WEDE15, Mean Fluorescence Intensity [1, 12]: 33 ± 6 MFI | WEDE15, Mean Fluorescence Intensity [1, 13]: 40 ± 8 MFI | WEDE15, Mean Fluorescence Intensity ([1]; E5555 100 ng/ml, Volunteers): 40 ± 8 MFI | VTNR (CD51/61), Mean Fluorescence Intensity [2, 10]: 10.2 ± 1.5 MFI | VTNR (CD51/61), Mean Fluorescence Intensity ([2]; E5555 20 ng/ml, Patients (ASA)): 10.8 ± 2.1 MFI | VTNR (CD51/61), Mean Fluorescence Intensity ([2]; E5555 20 ng/ml, Volunteers): 10.4 ± 1.3 MFI | VTNR (CD51/61), Mean Fluorescence Intensity [2, 11]: 10.9 ± 1.6 MFI | VTNR (CD51/61), Mean Fluorescence Intensity ([2]; E5555 50 ng/ml, Patients (ASA)): 10.5 ± 1.3 MFI | VTNR (CD51/61), Mean Fluorescence Intensity ([2]; E5555 50 ng/ml, Volunteers): 10.1 ± 1.7 MFI | VTNR (CD51/61), Mean Fluorescence Intensity [2, 12]: 11.0 ± 2.0 MFI | VTNR (CD51/61), Mean Fluorescence Intensity [2, 13]: 9.9 ± 1.3 MFI | VTNR (CD51/61), Mean Fluorescence Intensity ([2]; E5555 100 ng/ml, Volunteers): 10.7 ± 1.5 MFI | GPIb (CD42b), Mean Fluorescence Intensity [3, 10]: 105 ± 14 MFI | GPIb (CD42b), Mean Fluorescence Intensity ([3]; E5555 20 ng/ml, Patients (ASA)): 102 ± 9 MFI | GPIb (CD42b), Mean Fluorescence Intensity ([3]; E5555 20 ng/ml, Volunteers): 134 ± 17 MFI | GPIb (CD42b), Mean Fluorescence Intensity [3, 11]: 102 ± 19 MFI | GPIb (CD42b), Mean Fluorescence Intensity ([3]; E5555 50 ng/ml, Patients (ASA)): 104 ± 17 MFI | GPIb (CD42b), Mean Fluorescence Intensity ([3]; E5555 50 ng/ml, Volunteers): 125 ± 24 MFI | GPIb (CD42b), Mean Fluorescence Intensity [3, 12]: 137 ± 18 MFI | GPIb (CD42b), Mean Fluorescence Intensity [3, 13]: 100 ± 14 MFI | GPIb (CD42b), Mean Fluorescence Intensity ([3]; E5555 100 ng/ml, Volunteers): 150 ± 26 MFI | SPAN-12, Mean Fluorescence Intensity [4, 10]: 9 ± 2 MFI | SPAN-12, Mean Fluorescence Intensity ([4]; E5555 20 ng/ml, Patients (ASA)): 12 ± 4 MFI | SPAN-12, Mean Fluorescence Intensity ([4]; E5555 20 ng/ml, Volunteers): 20 ± 3 MFI | SPAN-12, Mean Fluorescence Intensity [4, 11]: 9 ± 3 MFI | SPAN-12, Mean Fluorescence Intensity ([4]; E5555 50 ng/ml, Patients (ASA)): 9 ± 4 MFI | SPAN-12, Mean Fluorescence Intensity ([4]; E5555 50 ng/ml, Volunteers): 17 ± 5 MFI | SPAN-12, Mean Fluorescence Intensity [4, 12]: 11 ± 3 MFI | SPAN-12, Mean Fluorescence Intensity [4, 13]: 10 ± 6 MFI | SPAN-12, Mean Fluorescence Intensity ([4]; E5555 100 ng/ml, Volunteers): 17 ± 4 MFI | P selectin, effect in words [5, 14]: not affected | P-selectin (CD62p), % positive cells [5, 10]: 7.6 ± 2.0 % positive cells | P-selectin (CD62p), % positive cells ([5]; E5555 20 ng/ml, Patients (ASA)): 9.7 ± 1.5 % positive cells | P-selectin (CD62p), % positive cells ([5]; E5555 20 ng/ml, Volunteers): 10.8 ± 2.0 % positive cells | P-selectin (CD62p), % positive cells [5, 11]: 7.7 ± 2.2 % positive cells | P-selectin (CD62p), % positive cells ([5]; E5555 50 ng/ml, Patients (ASA)): 10.1 ± 1.8 % positive cells | P-selectin (CD62p), % positive cells ([5]; E5555 50 ng/ml, Volunteers): 12.3 ± 2.2 % positive cells | P-selectin (CD62p), % positive cells [5, 12]: 8.0 ± 11.5 % positive cells | P-selectin (CD62p), % positive cells [5, 13]: 10.7 ± 1.6 % positive cells | P-selectin (CD62p), % positive cells ([5]; E5555 100 ng/ml, Volunteers): 11.4 ± 1.8 % positive cells | LAMP-3 (CD63), Mean Fluorescence Intensity [6, 10]: 20 ± 5 MFI | LAMP-3 (CD63), Mean Fluorescence Intensity ([6]; E5555 20 ng/ml, Patients (ASA)): 24 ± 8 MFI | LAMP-3 (CD63), Mean Fluorescence Intensity ([6]; E5555 20 ng/ml, Volunteers): 26 ± 7 MFI | LAMP-3 (CD63), Mean Fluorescence Intensity [6, 11]: 5 ± 3 MFI | LAMP-3 (CD63), Mean Fluorescence Intensity ([6]; E5555 50 ng/ml, Patients (ASA)): 9 ± 3 MFI | LAMP-3 (CD63), Mean Fluorescence Intensity ([6]; E5555 50 ng/ml, Volunteers): 8 ± 2 MFI | LAMP-3 (CD63), Mean Fluorescence Intensity [6, 12]: 4 ± 1 MFI | LAMP-3 (CD63), Mean Fluorescence Intensity [6, 13]: 5 ± 1 MFI | LAMP-3 (CD63), Mean Fluorescence Intensity ([6]; E5555 100 ng/ml, Volunteers): 7 ± 2 MFI | GPIIb antigen (CD41), Mean Fluorescence Intensity [7, 10]: 328 ± 41 MFI | GPIIb antigen (CD41), Mean Fluorescence Intensity ([7]; E5555 20 ng/ml, Patients (ASA)): 471 ± 38 MFI | GPIIb antigen (CD41), Mean Fluorescence Intensity ([7]; E5555 20 ng/ml, Volunteers): 504 ± 18 MFI | GPIIb antigen (CD41), Mean Fluorescence Intensity [7, 11]: 209 ± 30 MFI | GPIIb antigen (CD41), Mean Fluorescence Intensity ([7]; E5555 50 ng/ml, Patients (ASA)): 376 ± 35 MFI | GPIIb antigen (CD41), Mean Fluorescence Intensity ([7]; E5555 50 ng/ml, Volunteers): 390 ± 31 MFI | GPIIb antigen (CD41), Mean Fluorescence Intensity [7, 12]: 176 ± 19 MFI | GPIIb antigen (CD41), Mean Fluorescence Intensity [7, 13]: 304 ± 40 MFI | GPIIb antigen (CD41), Mean Fluorescence Intensity ([7]; E5555 100 ng/ml, Volunteers): 364 ± 37 MFI | GP37 (CD165), Mean Fluorescence Intensity [8, 10]: 27 ± 4 MFI | GP37 (CD165), Mean Fluorescence Intensity ([8]; E5555 20 ng/ml, Patients (ASA)): 27 ± 5 MFI | GP37 (CD165), Mean Fluorescence Intensity ([8]; E5555 20 ng/ml, Volunteers): 32 ± 6 MFI | GP37 (CD165), Mean Fluorescence Intensity [8, 11]: 18 ± 4 MFI | GP37 (CD165), Mean Fluorescence Intensity ([8]; E5555 50 ng/ml, Patients (ASA)): 20 ± 7 MFI | GP37 (CD165), Mean Fluorescence Intensity ([8]; E5555 50 ng/ml, Volunteers): 28 ± 5 MFI | GP37 (CD165), Mean Fluorescence Intensity [8, 12]: 21 ± 9 MFI | GP37 (CD165), Mean Fluorescence Intensity [8, 13]: 22 ± 6 MFI | GP37 (CD165), Mean Fluorescence Intensity ([8]; E5555 100 ng/ml, Volunteers): 29 ± 4 MFI | PECAM-1 expression, effect in words [9, 14]: significant reduction | PECAM-1 (CD31), Mean Fluorescence Intensity [9, 10]: 55 ± 11 MFI | PECAM-1 (CD31), Mean Fluorescence Intensity ([9]; E5555 20 ng/ml, Patients (ASA)): 52 ± 9 MFI | PECAM-1 (CD31), Mean Fluorescence Intensity ([9]; E5555 20 ng/ml, Volunteers): 64 ± 10 MFI | PECAM-1 (CD31), Mean Fluorescence Intensity [9, 11]: 51 ± 9 MFI | PECAM-1 (CD31), Mean Fluorescence Intensity ([9]; E5555 50 ng/ml, Patients (ASA)): 53 ± 7 MFI | PECAM-1 (CD31), Mean Fluorescence Intensity ([9]; E5555 50 ng/ml, Volunteers): 60 ± 8 MFI | PECAM-1 (CD31), Mean Fluorescence Intensity [9, 12]: 54 ± 8 MFI | PECAM-1 (CD31), Mean Fluorescence Intensity [9, 13]: 57 ± 10 MFI | PECAM-1 (CD31), Mean Fluorescence Intensity ([9]; E5555 100 ng/ml, Volunteers): 64 ± 11 MFI

From patent US20100056519A1, “COMPOSITION AND METHOD FOR REDUCING PLATELET ACTIVATION AND FOR THE TREATMENT OF THROMBOTIC EVENTS” (priority 2008, published 2010)
